Results published in PubChem BioAssay (NCI).
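Assay format: 96-well plates, 48-hour exposure. The concentration for full growth arrest is given as TGI.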 Where a SMILES comes first, the peptide text is derived from it. The star is where a group is joined. Boc = CC(C)(C)OC(=O)*

Tests used:
Test in all cases: NCI anticancer screen, dose series, 48 h
UO-31 renal = test system: UO-31 renal
MCF7 breast = test system: MCF7 breast
K-562 leukemia = test system: K-562 leukemia
DU-145 prostate = test system: DU-145 prostate
MOLT-4 leukemia = test system: MOLT-4 leukemia
TK-10 renal = test system: TK-10 renal
NCI-H460 lung = test system: NCI-H460 lung
SF-268 CNS = test system: SF-268 CNS
U251 CNS = test system: U251 CNS
UACC-62 melanoma = test system: UACC-62 melanoma
UACC-257 melanoma = test system: UACC-257 melanoma
BT-549 breast = test system: BT-549 breast
KM12 colon = test system: KM12 colon
HOP-62 NSCLC = test system: HOP-62 NSCLC
OVCAR-4 ovarian = test system: OVCAR-4 ovarian
NCI-H522 lung = test system: NCI-H522 lung
HOP-92 NSCLC = test system: HOP-92 NSCLC

Row | Structure (SMILES) | TGI (UO-31 renal) [µM] | TGI (MCF7 breast) [µM] | TGI (K-562 leukemia) [µM] | TGI (DU-145 prostate) [µM] | TGI (MOLT-4 leukemia) [µM] | TGI (TK-10 renal) [µM] | TGI (NCI-H460 lung) [µM] | TGI (SF-268 CNS) [µM] | TGI (U251 CNS) [µM] | TGI (UACC-62 melanoma) [µM] | TGI (UACC-257 melanoma) [µM] | TGI (BT-549 breast) [µM] | TGI (KM12 colon) [µM] | TGI (HOP-62 NSCLC) [µM] | TGI (OVCAR-4 ovarian) [µM] | TGI (NCI-H522 lung) [µM] | TGI (HOP-92 NSCLC) [µM]
1 | CN(C)CCn1c(=O)oc2cc(C(=O)CN3CCOCC3)ccc21 | > 100 | > 100 | > 100 | > 100 | > 100 | > 100 | > 100 | > 100 | > 100 | > 100 | > 100 | > 100 | > 100 | > 100 | – | – | –
2 | COc1cccc(CCn2c(N)c(C(=O)O)c3ccc([N+](=O)[O-])cc3c2=O)c1 | > 100 | 57.7 | > 100 | > 100 | > 100 | – | > 100 | > 100 | > 100 | > 100 | – | 87.4 | – | > 100 | > 100 | 75.8 | –
3 | CN(C)Cc1cc(C(=O)/C=C/c2ccc(Br)cc2)cc(CN(C)C)c1O | 9.04 | – | 10.8 | 25.1 | 19.6 | 27.4 | 21.9 | 50.3 | 33.5 | – | 19.5 | – | 5.88 | 17.2 | 28.8 | 12.6 | –
4 | COC(=O)C(Cc1c[nH]c2ccccc12)NC(=O)C(Cc1c[nH]c2ccccc12)NC(=O)C(Cc1c[nH]c2ccccc12)NC(=O)OC(C)(C)C (stereo not drawn) (Boc-Trp-Trp-Trp-OMe; configuration not given here) | > 100 | – | > 100 | – | 39.9 | 46.7 | 36 | – | 32.4 | 38.3 | > 100 | 33.8 | 38.2 | 32.7 | – | – | 33
5 | Cc1ccc(/C=C/C(=O)C(C)C)cc1 | > 100 | – | > 100 | – | 76.9 | > 100 | > 100 | > 100 | > 100 | > 100 | > 100 | – | > 100 | – | > 100 | > 100 | > 100
6 | COC1/C=C\OC2(C)Oc3c(C)c(O)c4c(O)c(c(/C=N\OCCCc5ccccc5)c(O)c4c3C2=O)NC(=O)/C(C)=C\C=C/C(C)C(O)C(C)C(O)C(C)C(OC(C)=O)C1C (stereo unspecified) | – | 5.6 | 15.4 | 15.7 | 10.5 | 8.47 | 15.6 | 18.3 | 16 | 10.1 | 18.6 | – | 14 | 6.75 | 12.6 | 10.7 | 6.26
7 | C[n+]1c2ccccc2c(C(=O)NC(CCCN=C(N)N)C(=O)O)c2ccccc21 (stereo unspecified) | > 100 | > 100 | > 100 | > 100 | > 100 | > 100 | > 100 | > 100 | > 100 | > 100 | > 100 | > 100 | > 100 | > 100 | > 100 | – | –
8 | C=C1C(=O)CCC1C(=O)O (stereo unspecified) | > 100 | > 100 | > 100 | > 100 | > 100 | > 100 | > 100 | > 100 | > 100 | > 100 | > 100 | > 100 | > 100 | > 100 | > 100 | > 100 | –
